Legend:
Type in all cases: cell-based
[1] = Inhibition of Smo-mediated hedgehog signaling pathway in mouse C3H10T1/2 cells after 6 days by Gli-dependent luciferase reporter gene assay; conditions: C3H 10T1/2, 144 h
[2] = Inhibition of Smo-mediated hedgehog signaling pathway in mouse Light2 cells in Shh conditioned medium after 48 hrs by Gli-Renilla luciferase reporter gene assay
[3] = Inhibition of hedgehog signaling pathway in mouse Light2 cells in Shh-N conditioned medium after 24 hrs by dual luciferase reporter gene assay
[4] = Inhibition of hedgehog signaling pathway in mouse Light2 cells in Shh conditioned medium assessed as reduction in GLI2 expression by Western blot analysis
[5] = Inhibition of hedgehog signaling pathway in mouse Light2 cells in Shh conditioned medium assessed as reduction in GLI1 expression by Western blot analysis

Row | SMILES | IC50 [1] [nM] | IC50 [2] [nM] | also measured
1 | CC[C@@H](C)C(=O)O[C@@H](C)[C@]1(O)CC[C@@]2(O)[C@]1(C)[C@H](OC(=O)/C=C/c1ccccc1)C[C@@H]1[C@@]3(C)CC[C@H](O)CC3=CC[C@]12O |  |  | IC50 [3]: 3700 nM
2 | CC[C@H](C)C(=O)O[C@@H](C)[C@]1(O)CC[C@@]2(O)[C@]1(C)[C@H](OC(=O)/C=C/c1ccccc1)C[C@@H]1[C@@]3(C)CC[C@H](O)CC3=CC[C@]12O |  |  | IC50 [3]: 2900 nM
3 | CCC(C)n1ncn(-c2ccc(N3CCN(c4ccc(OCC5COC(Cn6cncn6)(c6ccc(Cl)cc6Cl)O5)cc4)CC3)cc2)c1=O (stereo not given) [ITRACONAZOLE] |  | 690 | 
4 | C[C@@H]1CC[C@@]2(NC1)O[C@H]1C[C@H]3[C@@H]4CC=C5C[C@@H](O[C@@H]6O[C@H](CO)[C@H](O)[C@H](O[C@@H]7O[C@H](CO)[C@@H](O)[C@H](O)[C@H]7O)[C@H]6O[C@@H]6O[C@@H](C)[C@H](O)[C@@H](O)[C@H]6O)CC[C@]5(C)[C@H]4CC[C@]3(C)[C@H]1[C@@H]2C [SOLASONINE] |  |  | IC50 [4]: 2300 nM; IC50 [5]: 2490 nM

The next lines start with results.

Row | IC50 [1] [nM] | IC50 [2] [nM] | SMILES | also measured
5 | 650 |  | COc1cc(C(=O)NC(=S)Nc2cccc(NC(=O)c3ccccc3)c2)cc(OC)c1OC | 
6 | 15 |  | COc1cc(C(=O)NC(=N)Nc2ccc(C)c(NC(=O)c3ccc(-c4ccccc4)cc3)c2)cc(OC)c1OC | 
7 |  | 4440 | COc1ccc(/C=C/C(=O)c2cc(OC)c(OC)cc2OC)cc1OC | 
8 |  | 1400 | Cc1ccc(Cn2ncc3nc(-c4ccc(N5CCN(C(=O)CCc6c[nH]c7ccccc67)CC5)cc4)[nH]c32)cc1 | 
9 | 2.8 |  | COc1cc(C(=O)NC(=N)Nc2ccc(C)c(NC(=O)c3ccc(CCc4ccccc4)cc3)c2)cc(OC)c1OC | 
